Common to all, as to format: in vivo, mouse
The subject of assay [1] is mice. The assay can be described thus: Three-chamber test (sociability and social novelty). Set-up: key to Sociability, Figure S4G: sociability index = (T_S1 - T_E)/(T_S1 + T_E), sniffing time; key to Social novelty, Figure S4G: social novelty index = (T_S2 - T_S1)/(T_S2 + T_S1), sniffing time. As to conditions: for Sociability, Figure S4G / Social novelty, Figure S4G: individual animals. The procedure:
(§1) Six- to eight-week-old male mice were subjected to various behavioral tests. Mice were allowed to acclimatize in the testing room for 1 h prior to each test. Data were recorded and analyzed using Smart 3.0 video tracking system (Panlab, Harvard Apparatus).
This test was performed as described previously with minor modifications. The apparatus (60 W × 40 D × 22 H cm) has two transparent partitions separating the left, the middle, and the right chambers (20 × 40 cm each), and each partition has a small opening (5 × 5 cm) for access to each chamber. A fixed wire cylinder (8.5 cm diameter) was placed in each of the left and the right chambers. This test consisted of three phases: habituation, sociability test, and social novelty test. During habituation, both left and right cylinders were empty, and tested mice were placed in the center and allowed to explore freely for 10 min. During the sociability test, a gender-matched strange mouse (S1) was enclosed in one empty cylinder, and mice were allowed to freely explore for 10 min. Their time spent sniffing S1 or the other empty cylinder (E) was measured and the sociability preference index (T(S1 − -E)/T(S1 + E): time spent sniffing S1 minus time spent sniffing E over time spent sniffing both S1 and E) was calculated for comparison. During the social novelty test, another gender-matched unfamiliar mouse (S2) was placed into the empty cylinder and mice were allowed to freely explore for another 10 min. Their time spent sniffing S1 or S2 was measured and the social novelty preference index (T(S2 − S1)/T(S2 + S1): time spent sniffing S2 minus time spent sniffing S1 over time spent sniffing both S2 and S1) was calculated for comparison.

The test system of assay [2] is mice. The assay can be described thus: Open field test.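 Further: values are total travel distance.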 Also noted: OFT (open field test), Figure S4C: unit not given here. As to conditions: individual animals. As to the method: as §1
Mice were gently placed in the center of an open field apparatus (40 × 40 × 40 cm), and allowed for a 10-min period of free movement. Total distance traveled and time spent in center were analyzed.

Assay [3] deals with mice. The assay can be described thus: Novel location recognition (NLR) test. Also noted: key to NLR (novel location recognition), Figure S4D: discrimination index = (T novel − T familiar)/(T novel + T familiar). The note with it: for NLR (novel location recognition), Figure S4D: individual animals. The procedure:
as §1
This test consists of habituation, training, and testing phases. Mice were first put into the open field apparatus described above for 10 min habituation. During the training phase, mice were allowed to freely explore two identical objects placed near two opposite corners of the open field arena for 8 min. Twenty-four hour later, one of the objects was moved to be close to a third corner (N: Novel location) while the other one was kept in the same spatial position (F: Familiar location). Mice were then tested for their exploration behavior with these objects for 8 min. The discrimination index (T(N − F)/T(N + F): time spent exploring the novel location minus time spent in familiar location over time spent to both novel and familiar location) was calculated to assess the recognition memory of mice.

Assay [4] has as its system mice. The assay can be described thus: Self-grooming test. Also noted: Repetitive behaviors / Repetitive behaviors, Figure S4E: unit not given here. The note with it: for Repetitive behaviors: Figure 5D; for Repetitive behaviors / Repetitive behaviors, Figure S4E: Test2, individual animals. The procedure: as §1
Tested mice were placed individually in a clean cage with fresh bedding. After 5 min of habituation, the spontaneous behaviors of mice were recorded for 30 min and their self-grooming behavior was analyzed.

Assay [5] relates to mice. The assay can be described thus: Social affiliation test. The note with it: Mdga2+/- mice, 1 mg/kg i.p., 60 min, n = 10. The procedure:
as §1
The test procedure was similar to that described previously. Briefly, a cylinder (8.5 cm in diameter) with a gender-matched reference mouse confined was placed at a specific location in an open field (40 cm in diameter). Tested mice were allowed to move freely in the open field for 7 min and their sniffing time with the reference mice was analyzed.

Where [6] appears, read: Mdga2+/- mice, 1 mg/kg i.p., 60 min, n = 10.

“And” between values parts separate entries of the source, which are not always exact repeats. Equal entries are not always repeated.

Regarding `O=C(Nc1ccccc1C(=O)NC1CCCCNC1=O)c1cc2ccccc2s1` (stereo not shown) [ANA12], the “Sociability, Figure S4G” value in the assay on mice [1] (Het+ANA12, Test1) is 0.42 and 0.0153 and 0.50 and 0.46 and 0.24 and 0.59 and 0.23 and -0.06 and 0.14 and 0.34 and 0.26 and 0.0119 and 0.40; in the assay with mice [1] (Het+ANA12, Test2), 0.33 and -0.13 and 0.40 and 0.15 and 0.02 and -0.01 and 0.31 and 0.35 and 0.08 and 0.17 and 0.12 and 0.27 and -0.04 and -0.19 and 0.54; in the assay with mice [1] (WT+ANA12, Test1) it was 0.72 and 0.46 and 0.41 and 0.66 and 0.61 and 0.33 and 0.44 and 0.36 and 0.55 and -0.10 and 0.22 and -0.13 and 0.11; in the assay on mice [1] (WT+ANA12, Test2), 0.39 and 0.66 and 0.10 and -0.24 and 0.51 and 0.65 and 0.38 and 0.48 and 0.50 and 0.31 and 0.54 and 0.29 and 0.71 and 0.09 and 0.47. Moreover, the “Social novelty, Figure S4G” value was 0.24 and 0.45 and 0.21 and -0.09 and -0.20 and 0.40 and 0.11 and -0.13 and 0.0948 and 0.000711 and 0.03 and 0.09 and 0.14 and 0.35 in the assay on mice [1] (Het+ANA12, Test1); 0.15 and -0.17 and 0.23 and 0.32 and 0.18 and 0.16 and 0.44 and -0.13 and 0.0424 and -0.07 and 0.41 and -0.0144 and 0.06 and 0.0317 and 0.11 in the assay with mice [1] (Het+ANA12, Test2); 0.05 and 0.43 and 0.53 and -0.13 and 0.39 and 0.40 and 0.32 and 0.62 and 0.44 and 0.33 and -0.01 and 0.18 and 0.61 and -0.10 in the assay with mice [1] (WT+ANA12, Test1); -0.06 and 0.16 and 0.50 and 0.26 and 0.08 and 0.12 and 0.42 and 0.30 and 0.55 and 0.58 and 0.27 and 0.11 and 0.33 in the assay with mice [1] (WT+ANA12, Test2). In addition, the “OFT (open field test), Figure S4C” value in the assay with mice [2] (Het+ANA12, Test1) is 39.1 and 38.5 and 30.9 and 34.7 and 41.8 and 45.2 and 48.5 and 34.6 and 26.5; in the assay on mice [2] (Het+ANA12, Test2), 19.1 and 38.5 and 35 and 43.1 and 30.9 and 22 and 39 and 30.4 and 45.6 and 31.5 and 29.6 and 25.1 and 49.6 and 27.8 and 28.2; in the assay with mice [2] (WT+ANA12, Test1), 46.5 and 20.6 and 31.2 and 41.8 and 24 and 27.1 and 44.6 and 35 and 26.6 and 21.8 and 34.8 and 37 and 41.1 and 19.1 and 26.9; with mice [2] (WT+ANA12, Test2) it was 43.3 and 20.5 and 26 and 46 and 26.1 and 37.1 and 47.7 and 21.2 and 24.6 and 27.2 and 22 and 34.1 and 17 and 29.8 and 32.4. Further, the “NLR (novel location recognition), Figure S4D” value in the assay on mice [3] (Het+ANA12, Test1) is -0.13 and 0.49 and 0.11 and 0.03 and 0.36 and -0.0741 and 0.20 and 0.55 and 0.14 and 0.51 and 0.0439 and 0.0756 and 0.45 and 0.32 and -0.03; in the assay with mice [3] (Het+ANA12, Test2), 0.15 and 0.00112 and 0.11 and 0.43 and 0.18 and -0.10 and 0.51 and 0.26 and -0.18 and 0.30 and 0.00129 and 0.14 and -0.04; with mice [3] (WT+ANA12, Test1), 0.36 and 0.47 and 0.12 and 0.06 and 0.23 and 0.50 and 0.35 and 0.32 and -0.035 and 0.43 and 0.37 and -0.09 and 0.25 and 0.51 and -0.07; with mice [3] (WT+ANA12, Test2), -0.05 and 0.41 and 0.35 and 0.09 and 0.46 and -0.12 and 0.53 and 0.45 and 0.17 and 0.20 and -0.17 and 0.62 and 0.54. Further, the Repetitive behaviors is 19 and 17 and 36 and 33 and 26 and 14 and 10 and 20 and 12 and 38 and 29 and 30 and 22 and 16 with mice [4] (Het+ANA12); 32 and 20 and 14 and 10 and 7 and 25 and 9 and 18 and 8 and 11 and 13 with mice [4] (WT+ANA12). Also, the “Repetitive behaviors, Figure S4E” value was 15 and 19 and 11 and 20 and 12 and 38 and 30 and 29 and 18 and 13 and 26 and 32 and 22 and 35 with mice [4] (Het+ANA12); 12 and 22 and 6 and 30 and 5 and 14 and 8 and 18 and 10 and 16 and 9 and 20 and 17 and 11 in the assay on mice [4] (WT+ANA12).

For the compound `CCN(CC)Cc1cccc(/C=C/c2nc3ccc(F)cc3c(=O)n2-c2ccccc2Cl)n1` [CP-465022, reference compound], in the assay with mice [1] (setting [6]), the sociability result was “rapidly promoted social affiliation and sociability”; the social novelty result is “without affecting social novelty”. Also, the recognition memory entry with mice [3] (setting [6]) was “without affecting social novelty, recognition memory”. Further, the repetitive self-grooming behavior result in the assay with mice [4] (setting [6]) is “without affecting social novelty, recognition memory, and repetitive self-grooming behavior”. Besides, the social affiliation result in the assay on mice [5] is given as “rapidly promoted social affiliation”.

Values taken from paper PMC11960969, “Mdga2 deficiency leads to an aberrant activation of BDNF/TrkB signaling that underlies autism-relevant synaptic and behavioral changes in mice” (PLOS Biology, 2025).
